For the test, the target named is T1, NBCe1B/C (electrogenic Na-HCO3 cotransporter) (Rattus norvegicus, UniProt Q9JI66).
T1 construct: gene Slc4a4; native transporter in basolateral membrane vesicles of rat proximal colon (amiloride-insensitive component)
T1 sequence (Q9JI66 1-1079): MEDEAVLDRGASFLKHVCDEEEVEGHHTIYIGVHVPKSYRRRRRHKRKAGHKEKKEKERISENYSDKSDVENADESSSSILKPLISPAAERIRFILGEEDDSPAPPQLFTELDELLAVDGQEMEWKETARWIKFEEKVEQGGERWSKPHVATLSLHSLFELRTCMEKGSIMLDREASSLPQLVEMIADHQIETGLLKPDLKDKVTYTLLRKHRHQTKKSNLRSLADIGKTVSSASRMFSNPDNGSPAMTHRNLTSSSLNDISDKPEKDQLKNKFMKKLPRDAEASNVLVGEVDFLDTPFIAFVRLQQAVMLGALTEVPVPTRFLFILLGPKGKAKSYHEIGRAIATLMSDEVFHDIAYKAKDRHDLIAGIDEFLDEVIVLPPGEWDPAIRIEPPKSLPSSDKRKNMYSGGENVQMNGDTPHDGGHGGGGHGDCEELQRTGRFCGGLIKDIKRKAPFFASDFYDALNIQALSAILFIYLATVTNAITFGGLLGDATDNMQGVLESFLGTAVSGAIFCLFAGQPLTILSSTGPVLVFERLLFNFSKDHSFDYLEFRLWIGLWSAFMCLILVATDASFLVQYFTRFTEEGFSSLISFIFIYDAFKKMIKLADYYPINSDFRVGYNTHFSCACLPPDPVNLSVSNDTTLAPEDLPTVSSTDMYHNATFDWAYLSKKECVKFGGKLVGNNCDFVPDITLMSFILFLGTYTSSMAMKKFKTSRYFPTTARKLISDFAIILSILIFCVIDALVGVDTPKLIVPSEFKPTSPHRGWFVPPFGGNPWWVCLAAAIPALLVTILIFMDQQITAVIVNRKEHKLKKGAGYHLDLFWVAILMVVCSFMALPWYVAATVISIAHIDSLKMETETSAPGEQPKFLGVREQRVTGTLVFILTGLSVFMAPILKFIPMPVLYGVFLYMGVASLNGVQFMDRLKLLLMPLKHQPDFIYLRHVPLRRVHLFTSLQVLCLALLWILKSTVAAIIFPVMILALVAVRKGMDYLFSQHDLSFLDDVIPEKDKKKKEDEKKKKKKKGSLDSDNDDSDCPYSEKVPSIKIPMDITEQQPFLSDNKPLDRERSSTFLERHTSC
The test is described as follows: inhibition of proton/HCO3 gradient-driven […] uptake in native membrane vesicles. It is filed as biochemical.

Structures are written as SMILES.

For orientation: Ki means a dissociation constant, usually derived from enzyme kinetics or from competition with a known ligand. A lower Ki goes with a stronger hold on the target. `O=S(=O)(O)c1cc(N=C=S)ccc1/C=C/c1ccc(N=C=S)cc1S(=O)(=O)O` [DIDS] gave an inhibition constant Ki of 8.9 ± 1.2 µM.

The values above are taken from paper PMC3653958, “Identification of Functionally Distinct Na-HCO3 Co-Transporters in Colon” (PLoS ONE, 2013).
